Data as given in patent US10815379B2, “pH sensitive fluorescent probe” (The University of Tokyo, priority 2015, dated 2020).
Read-outs that look alike come from different tables or passages of the source.

Tests used:
[1] = Optical characteristics (absorption, fluorescence, excitation spectra) in 100 mM sodium phosphate buffer; assay type: physicochemical; settings: for absorption maximum / absorption wavelength, acidic pH: acidic solution; for absorption maximum / absorption wavelength, basic pH: basic solution
Protocol: The spectral characteristics of compound 1 of the present invention (2,6-diMe BnPiperaIndoSiR) were evaluated. The absorption spectrum, fluorescence spectrum, and excitation spectrum were measured using a Shimadzu UV-1650PC absorption spectrophotometer and a Hitachi F-4500 fluorometer.
(§1) FIG. 2a represents the assumed chemical equilibrium equation of 2,6-diMe BnPiperaIndoSiR. FIGS. 2b, 2c, and 2d respectively represent the absorption, fluorescence, and excitation spectra of 2,6-diMe BnPiperaIndoSiR in 100 mM sodium phosphate buffer (containing 1% DMSO) of different pH.
The spectral characteristics of compound 2 of the present invention (SiRpH3) were evaluated. The absorption spectrum fluorescence spectrum, and excitation spectrum were measured using a Shimadzu UV-1650PC absorption spectrophotometer and a Hitachi F-4500 fluorometer.
(§2) FIGS. 3a, 3b, and 3c represent the absorption, fluorescence, and excitation spectra of SiRpH3 in 100 mM sodium phosphate buffer (containing 1% DMSO) of different pH.
The spectral characteristics of compound 3 of the present invention (SiRpH4) were evaluated. The absorption spectrum fluorescence spectrum, and excitation spectrum were measured using a Shimadzu UV-1650PC absorption spectrophotometer and a Hitachi F-4500 fluorometer.
(§3) FIGS. 4a and 4b represent the absorption and excitation spectra of SiRpH4 in 100 mM sodium phosphate buffer (containing 1% DMSO) of different pH.
The spectral characteristics of compound 4 of the present invention (SiRpH5) were evaluated. The absorption spectrum fluorescence spectrum, and excitation spectrum were measured using a Shimadzu UV-1650PC absorption spectrophotometer and a Hitachi F-4500 fluorometer.
(§4) FIG. 5a represents the assumed chemical equilibrium equation of SiRpH5. FIGS. 5b and 5c represent the absorption and excitation spectra of SiRpH5 in 100 mM sodium phosphate buffer (containing 1%) DMSO) of different pH.

[2] = pKa of the protonation reaction from plot of absorbance or fluorescence intensity ratio vs. pH; assay type: physicochemical; settings: for pKa of the protonation reaction: 100 mM sodium phosphate buffer, 1% DMSO
Protocol: as §1, §2, §3, §4

[3] = cited from earlier work
[4] = pH 3.0, 100 mM sodium phosphate buffer
[5] = pH 10.0, 100 mM sodium phosphate buffer
[6] = Table 3, pH 3.0, 100 mM sodium phosphate buffer
[7] = Table 3, pH 10.0, 100 mM sodium phosphate buffer
[8] = Table 2, pH 3.0, 100 mM sodium phosphate buffer
[9] = Table 2, pH 7.4, 100 mM sodium phosphate buffer
[10] = Table 2, pH 10.0, 100 mM sodium phosphate buffer

In the case of `Cc1cccc(C)c1C1=c2cc3c(cc2[Si](C)(C)c2cc(N4CCN(Cc5ccccc5)CC4)ccc21)=[N+](C)CC3.O=C(O)C(F)(F)F` [2,6-diMe BnPiperaIndoSiR], the Absmax [1, 4] is reported as 588 nm, the E [1, 4] is reported as 26,000 M^−1 cm^−1 and the Emmax [1, 4] is reported as 676 nm. For the same compound, the Φfl [1, 4] was 0.19, the Absmax [1, 5] was 663 nm and the E [1, 5] was 33,000 M^−1 cm^−1. The Emmax [1, 5] was 689 nm, the Φfl [1, 5] was 0.12 and the “decrease of pKa in comparison to 2-Me MePiperaIndoSiR” value ([2]; by benzylation of the piperazine aliphatic amino group) was 0.9. The “pKa of the protonation reaction” value ([2]; from changes in absorbance at 663 nm when the pH was varied) was 6.4.

In the case of “2′,7′-bis-(2-carboxyethyl)-5- (and -6-)carboxyfluoresceins [BCECF]”, the pKa [3] is listed as 7.0.

Work on `Cc1cc(C(=O)O)cc(C)c1C1=c2cc3c(cc2[Si](C)(C)c2cc(N4CCN(Cc5ccc(S(=O)(=O)O)cc5S(=O)(=O)O)CC4)ccc21)=[N+](C)CC3.O=C([O-])C(F)(F)F` [SiRpH5] yielded a Λem [1, 6] of 679 nm, a Λex [1, 6] of 588 nm and a Φfl [1, 6] of 0.21. For the same compound, the ε [1, 6] was 23,000 M^−1cm^−1, the Λem [1, 7] was 690 nm and the Λex [1, 7] was 668 nm. The Φfl [1, 7] was 0.08, the ε [1, 7] was 33,000 M^−1cm^−1 and the “absorption maximum / absorption wavelength, acidic pH” value [1] was “approximately 590 nm”. The “absorption maximum / absorption wavelength, basic pH” value [1] was “approximately 670 nm”, the “pKa of the protonation reaction” value ([2]; from plot of fluorescence intensity ratio (700 nm, excitation 580 nm / 663 nm) vs. pH) was 6.1 and the “shift of the pKa of the ratio value change” value ([2]; in comparison to the named probe) was “shifted to the acidic side in comparison to SiRpH4”.

In the case of `Cc1cccc(C)c1C1=c2cc3c(cc2[Si](C)(C)c2cc(N4CCN(Cc5cccc(F)c5)CC4)ccc21)=[N+](C)CC3.O=C(O)C(F)(F)F` [SiRpH3], the “lengthening of the absorption wavelength as the pH moved from acidic to basic” value [1] is reported as “approximately 80 nm”, the Absmax [1, 8] is reported as 585 nm and the E [1, 8] is reported as 25,000 M^−1cm^−1. The Emmax [1, 8] was 676 nm, the Φfl [1, 8] was 0.20 and the Absmax [1, 9] was 662 nm. The E [1, 9] was 30,000 M^−1cm^−1, the Emmax [1, 9] was 688 nm and the Φfl [1, 9] was 0.12. The Absmax [1, 10] was 663 nm, the E [1, 10] was 31,000 M^−1cm^−1 and the Emmax [1, 10] was 689 nm. The Φfl [1, 10] was 0.11, the “absorption maximum / absorption wavelength, acidic pH” value [1] was “approximately 580 nm” and the “absorption maximum / absorption wavelength, basic pH” value [1] was “approximately 660 nm”.

With `Cc1cccc(C)c1C1=c2cc3c(cc2[Si](C)(C)c2cc(N4CCN(Cc5ccccc5S(=O)(=O)O)CC4)ccc21)=[N+](C)CC3` [SiRpH4] the “shift of the pKa of the ratio value change” value [2] was “shifted to the basic side in comparison to SiRpH3”.
